# According to US20260191244A1, “NOVEL FLAVOR COMPOUNDS” (INTERNATIONAL FLAVORS & FRAGRANCES INC., priority 2022, published 2026):
# Key:
# [1] = Summary statements over all flavor evaluations
# [2] = Flavor evaluation in Ribotide solution (1000 ppm); conditions: 2 ppm added in Ribotide solution (1000 ppm)
# Excerpt: The Structure A4 and B4 mixture of 50:50 ratio ([…]) was further evaluated in Ribotide® (1000 ppm).
# [3] = Flavor evaluation of water solutions; conditions: for Flavor Profile: water solution
# Protocol: A series of water solutions of N-(4-methoxyphenyl)-2-methyl-2-(1-methylcyclohexyl)propenamide (Structure A4) were prepared and evaluated for flavor. The flavor profile is reported in the following:
# Preparation and Evaluation of N-(4-Methoxyphenyl)-2-methyl-2-(1-methylcyclohexyl)propenamide (Structure A4) and 1-(tert-Butyl)-N-(4-methoxyphenyl)cyclohexane-1-carboxamide (Structure B4) Mixtures of Different Ratios: Mixtures of N-(4-methoxyphenyl)-2-methyl-2-(1-methylcyclohexyl)propenamide (Structure A4) and 1-(tert-butyl)-N-(4-methoxyphenyl)cyclohexane-1-carboxamide (Structure B4) were prepared by mixing two compounds at different ratios. “Ratio” refers to the weight ratio of Structure A4 and Structure B4. Water solutions of the mixtures (375 ppb) were prepared and evaluated for flavor in water, MSG solution (5000 ppm) and a salt solution (containing NaCl of 3750 ppm, Ribotide® of 35 ppm and MSG of 840 ppm), respectively. Water, MSG solution and the salt solution were each used as base controls.
# [4] = Flavor evaluation in monosodium glutamate (MSG) solution (5000 ppm)
# Protocol: A monosodium glutamate (MSG) solution (5000 ppm) was prepared in water. The flavor profile of the MSG solution with added Structure A4 is reported in the following:
# As used herein, the term “synergistic umami” refers to the umami effect of the Structure A4 and MSG combination that is stronger than the added umami effect of individual Structure A4 and MSG. […]
smiles,measurement,setting,value
"COc1ccc(NC(=O)C(C)(C)C2(C)CCCCC2)cc1 [Structure A4, N-(4-Methoxyphenyl)-2-methyl-2-(1-methylcyclohexyl)propenamide]",Umami character,[1]; in all evaluations,provided upfront and lingering umami character
same,Synergistic umami,[1]; when combined with Structure B4 and/or an additional umami compound,achieved synergistic umami
same,Synergistic umami in Ribotide solution,[2],synergistic umami was also achieved
same,Flavor Profile,[3]; Structure A4 1 ppm,"Strong umami, cooling, tingly, tongue scratching"
same,Flavor Profile,[3]; Structure A4 2 ppm,"Strong and lingering umami, good mouthfeel, cooling, tingling"
same,Flavor Profile,[3]; Structure A4 5 ppm,"Strong and lingering umami, moderate and lingering cooling, lingering bitter, drying"
same,Flavor Profile,[3]; Structure A4 10 ppm,"Moderate umami, moderate cooling, lingering bitter, tingling, brackish linger"
same,Flavor Profile,[3]; Structure A4 15 ppm,"Moderate umami, moderate cooling, lingering bitter, creamy, mineral, drying"
same,Flavor Profile,[3]; Structure A4 100 ppb,"Very slight bitter, minimal cooling, drying linger, minimal umami"
same,Flavor Profile,[3]; Structure A4 200 ppb,"Slight cooling, slight bitter, drying, very slight umami"
same,Flavor Profile,[3]; Structure A4 375 ppb,"Slight bitter, cooling, umami, linger"
same,Flavor Profile,[3]; Structure A4 500 ppb,"Clear and moderate umami, slight bitter, cooling, linger"
same,Flavor Profile,[3]; Structure A4 750 ppb,"Clear and moderate umami, cooling, slightly soapy, slightly waxy"
same,Umami in water,"[3]; water solutions, all concentrations 100 ppb to 15 ppm",exhibited umami
same,Umami Strength,[4]; MSG solution (5000 ppm) with added Structure A4 1 ppm,"Synergistic umami of Structure A4 and MSG, lingering umami"
same,Umami Strength,[4]; MSG solution (5000 ppm) with added Structure A4 2 ppm,"Synergistic umami of Structure A4 and MSG, lingering umami"
same,Umami Strength,[4]; MSG solution (5000 ppm) with added Structure A4 5 ppm,"Synergistic umami of Structure A4 and MSG, strong cooling"
same,Umami Strength,[4]; MSG solution (5000 ppm) with added Structure A4 10 ppm,"Synergistic umami of Structure A4 and MSG, strong cooling"
same,Umami Strength,[4]; MSG solution (5000 ppm) with added Structure A4 15 ppm,"Synergistic umami of Structure A4 and MSG, strong cooling"
same,Umami Strength,[4]; MSG solution (5000 ppm) with added Structure A4 100 ppb,Added effect of Structure A4 and MSG
same,Umami Strength,[4]; MSG solution (5000 ppm) with added Structure A4 200 ppb,"Synergistic umami of Structure A4 and MSG, lingering umami"
same,Umami Strength,[4]; MSG solution (5000 ppm) with added Structure A4 375 ppb,"Synergistic umami of Structure A4 and MSG, lingering umami"
same,Umami Strength,[4]; MSG solution (5000 ppm) with added Structure A4 500 ppb,"Synergistic umami of Structure A4 and MSG, lingering umami"
same,Umami Strength,[4]; MSG solution (5000 ppm) with added Structure A4 750 ppb,"Synergistic umami of Structure A4 and MSG, lingering umami"
same,Synergistic umami with MSG,[4]; Structure A4 ranging from 200 ppb to 15 ppm and MSG (5000 ppm),Synergistic umami was achieved
"COc1ccc(NC(=O)C2(C(C)(C)C)CCCCC2)cc1 [Structure B4, 1-(tert-butyl)-N-(4-methoxyphenyl)cyclohexane-1-carboxamide]",Flavor in water,[3]; 375 ppb in water,"slight umami, slight sweetness and bitter linger"
